{
  "source": "ChEMBL document CHEMBL5143704",
  "about": "“Discovery of 2,4-diarylaminopyrimidine derivatives bearing dithiocarbamate moiety as novel ALK inhibitors” (Bioorg Med Chem, 2022)",
  "key": {"[1]": {"system": "A549", "experiment": "cells", "settings": "Homo sapiens, A549, 96 h", "description": "Antiproliferative activity against ALK-negative human A549 cells assessed as inhibition of cell growth incubated for 96 hrs by MTT assay"}, "[2]": {"system": "NCI-H2228", "experiment": "Induction of cell cycle arrest in human NCI-H2228 cells assessed as accumulation of cells at G1 phase at 0.6 uM incubated for 48 hrs propidium iodide staining based flow cytometric analysis (reference value: 59.82%)", "assay_type": "functional"}, "[3]": {"system": "NCI-H2228", "experiment": "Induction of cell cycle arrest in human NCI-H2228 cells assessed as accumulation of cells at G2/M phase at 0.6 uM incubated for 48 hrs propidium iodide staining based flow cytometric analysis (reference value: 12.02%)", "assay_type": "functional"}, "[4]": {"system": "NCI-H2228", "experiment": "Induction of apoptosis in human NCI-H2228 cells assessed as viable cells at 0.6 uM incubated for 48 hrs by annexinV-FITC/propidium iodide staining based flow cytometry analysis (reference value: 93.63%)", "assay_type": "functional", "settings": "read-out: Activity"}, "[5]": {"system": "NCI-H2228", "experiment": "Induction of cell cycle arrest in human NCI-H2228 cells assessed as accumulation of cells at S phase at 0.2 uM incubated for 48 hrs propidium iodide staining based flow cytometric analysis (reference value: 28.16%)", "assay_type": "functional"}, "[6]": {"system": "NCI-H2228", "experiment": "cells", "settings": "Homo sapiens, NCI-H2228, 96 h", "description": "Antiproliferative activity against EML4-ALK positive human NCI-H2228 cells assessed as inhibition of cell growth incubated for 96 hrs by MTT assay"}, "[7]": {"system": "NCI-H2228", "experiment": "Induction of apoptosis in human NCI-H2228 cells assessed as early apoptotic cells at 0.6 uM incubated for 48 hrs by annexinV-FITC/propidium iodide staining based flow cytometry analysis (reference value: 1.84%)", "assay_type": "functional"}, "[8]": {"system": "NCI-H2228", "experiment": "Induction of apoptosis in human NCI-H2228 cells assessed as necrotic at 0.2 uM incubated for 48 hrs by annexinV-FITC/propidium iodide staining based flow cytometry analysis (reference value: 2.12%)", "assay_type": "functional"}, "[9]": {"system": "NCI-H2228", "experiment": "Induction of apoptosis in human NCI-H2228 cells assessed as late apoptotic cells at 1.8 uM incubated for 48 hrs by annexinV-FITC/propidium iodide staining based flow cytometry analysis (reference value: 2.40%)", "assay_type": "functional"}, "[10]": {"system": "NCI-H2228", "experiment": "Induction of cell cycle arrest in human NCI-H2228 cells assessed as accumulation of cells at S phase at 0.6 uM incubated for 48 hrs propidium iodide staining based flow cytometric analysis (reference value: 28.16%)", "assay_type": "functional"}, "[11]": {"system": "NCI-H2228", "experiment": "Induction of cell cycle arrest in human NCI-H2228 cells assessed as accumulation of cells at G2/M phase at 0.2 uM incubated for 48 hrs propidium iodide staining based flow cytometric analysis (reference value: 12.02%)", "assay_type": "functional"}, "[12]": {"system": "HCT-116", "experiment": "cells", "settings": "Homo sapiens, HCT-116, 96 h", "description": "Antiproliferative activity against ALK-negative human HCT-116 cells assessed as inhibition of cell growth incubated for 96 hrs by MTT assay"}, "[13]": {"system": "NCI-H2228", "experiment": "Induction of apoptosis in human NCI-H2228 cells assessed as late apoptotic cells at 0.6 uM incubated for 48 hrs by annexinV-FITC/propidium iodide staining based flow cytometry analysis (reference value: 2.40%)", "assay_type": "functional"}, "[14]": {"system": "KARPAS-299", "experiment": "cells", "settings": "Homo sapiens, KARPAS-299, 96 h", "description": "Antiproliferative activity against NPM-ALK positive human KARPAS-299 cells assessed as inhibition of cell growth incubated for 96 hrs by CCK-8 assay"}, "[15]": {"system": "NCI-H2228", "experiment": "Induction of cell cycle arrest in human NCI-H2228 cells assessed as accumulation of cells at G1 phase at 0.2 uM incubated for 48 hrs propidium iodide staining based flow cytometric analysis (reference value: 59.82%)", "assay_type": "functional"}, "[16]": {"system": "NCI-H2228", "experiment": "Induction of cell cycle arrest in human NCI-H2228 cells assessed as accumulation of cells at S phase at 1.8 uM incubated for 48 hrs propidium iodide staining based flow cytometric analysis (reference value: 28.16%)", "assay_type": "functional"}, "[17]": {"system": "NCI-H2228", "experiment": "Induction of apoptosis in human NCI-H2228 cells assessed as early apoptotic cells at 1.8 uM incubated for 48 hrs by annexinV-FITC/propidium iodide staining based flow cytometry analysis (reference value: 1.84%)", "assay_type": "functional"}, "[18]": {"system": "NCI-H2228", "experiment": "Induction of apoptosis in human NCI-H2228 cells assessed as viable cells at 0.2 uM incubated for 48 hrs by annexinV-FITC/propidium iodide staining based flow cytometry analysis (reference value: 93.63%)", "assay_type": "functional", "settings": "read-out: Activity"}, "[19]": {"system": "NCI-H2228", "experiment": "Induction of cell cycle arrest in human NCI-H2228 cells assessed as accumulation of cells at G1 phase at 1.8 uM incubated for 48 hrs propidium iodide staining based flow cytometric analysis (reference value: 59.82%)", "assay_type": "functional"}, "[20]": {"system": "NCI-H2228", "experiment": "Induction of apoptosis in human NCI-H2228 cells assessed as late apoptotic cells at 0.2 uM incubated for 48 hrs by annexinV-FITC/propidium iodide staining based flow cytometry analysis (reference value: 2.40%)", "assay_type": "functional"}, "[21]": {"system": "NCI-H2228", "experiment": "Induction of cell cycle arrest in human NCI-H2228 cells assessed as accumulation of cells at G2/M phase at 1.8 uM incubated for 48 hrs propidium iodide staining based flow cytometric analysis (reference value: 12.02%)", "assay_type": "functional"}, "[22]": {"system": "NCI-H2228", "experiment": "Induction of apoptosis in human NCI-H2228 cells assessed as viable cells at 1.8 uM incubated for 48 hrs by annexinV-FITC/propidium iodide staining based flow cytometry analysis (reference value: 93.63%)", "assay_type": "functional", "settings": "read-out: Activity"}, "[23]": {"system": "NCI-H2228", "experiment": "Induction of apoptosis in human NCI-H2228 cells assessed as necrotic at 1.8 uM incubated for 48 hrs by annexinV-FITC/propidium iodide staining based flow cytometry analysis (reference value: 2.12%)", "assay_type": "functional"}, "[24]": {"system": "NCI-H2228", "experiment": "Induction of apoptosis in human NCI-H2228 cells assessed as early apoptotic cells at 0.2 uM incubated for 48 hrs by annexinV-FITC/propidium iodide staining based flow cytometry analysis (reference value: 1.84%)", "assay_type": "functional"}, "[25]": {"system": "NCI-H2228", "experiment": "Induction of apoptosis in human NCI-H2228 cells assessed as necrotic at 0.6 uM incubated for 48 hrs by annexinV-FITC/propidium iodide staining based flow cytometry analysis (reference value: 2.12%)", "assay_type": "functional"}},
  "data": [
    {"smiles": "Cc1cc(Nc2ncc(Cl)c(Nc3ccccc3S(=O)(=O)C(C)C)n2)c(OC(C)C)cc1C1CCN(C(=O)SCC(=S)N2CCS(=O)(=O)CC2)CC1", "values": [
      {"measurement": "IC50", "setting": "[1]", "value": "> 10000", "unit": "nM"},
      {"measurement": "Activity", "setting": "[2]", "value": 59.11, "unit": "%"},
      {"measurement": "Activity", "setting": "[3]", "value": 18.15, "unit": "%"},
      {"measurement": "viability at 0.6 µM", "setting": "[4]", "value": 84.4, "unit": "%"},
      {"measurement": "Activity", "setting": "[5]", "value": 24.71, "unit": "%"},
      {"measurement": "IC50", "setting": "[6]", "value": 70, "unit": "nM"},
      {"measurement": "Activity", "setting": "[7]", "value": 5.7, "unit": "%"},
      {"measurement": "Activity", "setting": "[8]", "value": 2.24, "unit": "%"},
      {"measurement": "Activity", "setting": "[9]", "value": 8.06, "unit": "%"},
      {"measurement": "Activity", "setting": "[10]", "value": 22.74, "unit": "%"},
      {"measurement": "Activity", "setting": "[11]", "value": 15.59, "unit": "%"},
      {"measurement": "IC50", "setting": "[12]", "value": 5530, "unit": "nM"},
      {"measurement": "Activity", "setting": "[13]", "value": 6.37, "unit": "%"},
      {"measurement": "IC50", "setting": "[14]", "value": 70, "unit": "nM"},
      {"measurement": "Activity", "setting": "[15]", "value": 59.7, "unit": "%"},
      {"measurement": "Activity", "setting": "[16]", "value": 16.1, "unit": "%"},
      {"measurement": "Activity", "setting": "[17]", "value": 8.84, "unit": "%"},
      {"measurement": "viability at 0.2 µM", "setting": "[18]", "value": 89.8, "unit": "%"},
      {"measurement": "Activity", "setting": "[19]", "value": 56.55, "unit": "%"},
      {"measurement": "Activity", "setting": "[20]", "value": 3.65, "unit": "%"},
      {"measurement": "Activity", "setting": "[21]", "value": 27.35, "unit": "%"},
      {"measurement": "viability at 1.8 µM", "setting": "[22]", "value": 79.1, "unit": "%"},
      {"measurement": "Activity", "setting": "[23]", "value": 4.04, "unit": "%"},
      {"measurement": "Activity", "setting": "[24]", "value": 4.31, "unit": "%"},
      {"measurement": "Activity", "setting": "[25]", "value": 3.5, "unit": "%"}
    ]}
  ]
}
